Measured values from patent US6815205B2, “Auxinic analogues of indole-3-acetic acid” (Invitrogen Corporation, priority 1995, dated 2004).
Entries after “also recorded” stand apart in the source; their conditions may differ.

Legend:
transformed tobacco = assay: Regeneration of Agrobacterium-mediated transformed tobacco tissue under kanamycin selection; format: cell-based; conditions: in the presence of BAP; 100 mg/l kanamycin
Experimental: (§1) These IAA analogues were further evaluated for their abilities to effect the regeneration of plant tissues comprising foreign DNA. Tobacco and potato tissues were subjected to Agrobacterium-mediated transformation techniques, including cocultivation with Agrobacterium containing pBI121 and selecting with MS complete medium containing 0.5 mg/l BAP, 2 mg/l IAA derivative and 100 mg/l kanomycin.
(§2) Agrobacterium-mediated plant transformation was performed as described by Lin et al. (1994) Focus 16:72-77. For example:
In tobacco, the leaf discs were incubated with 10^9 cells/ml of Agrobacterium tumefaciens LBA4404 cells containing pBI121 in MS complete medium with 0.5 mg/l MES for 10 minutes, transferred to solid MS complete medium, and incubated for two days at 25° C., using an 18 hour light/6 hour dark cycle for cocultivation. After cocultivation, the explants were transferred to the MS medium containing a different ratio of BAP/IAA or BAP/IAA analogue, 100 mg/l kanamycin and 500 mg/l carbenicillin and incubated at 25° C. using an 18 hour light/6 hour dark cycle for shoot formation.

transformed potato = assay: Regeneration of Agrobacterium-mediated transformed potato tissue under kanamycin selection; format: cell-based; design: key to Potato Callus (regeneration of transformed tissue): +(−) means preliminary observation; conditions: 100 mg/l kanamycin; for Potato Callus (regeneration of transformed tissue): BAP 0.5 mg/l, 2 mg/l IAA derivative, Agrobacterium pBI121; for regeneration of kanamycin resistant calli in transformed potato: in the presence of BAP
Experimental: as §1
Plant transformation in potato stems is carried out as described above in section (a) for tobacco.
as §2
In another example, potato leaf discs were transformed with the Agrobacterium-mediation technique as described above for tobacco. The potato explants were then subjected to incubation with IAA analogues in the absence and presence of cytokinin to screen for auxinic activities.

Arabidopsis thaliana = tested on: Arabidopsis thaliana
Experimental: Seeds of Arabidopsis thaliana ecotypes Columbia and Landersberg ereta are provided by Dr. Keith Davis (The Ohio State University, Columbus). Tissues of hypocotyl are removed from 10-day-old seedlings, transferred to MS complete medium containing (1) different concentrations of IAA or IAA analogue with different concentrations of N^6.(Δ2Isopentenyl) adenine (2iP) and (2) different concentrations of IAA analogue with different concentrations of 2iP, BAP, or kinetin. The explants are incubated at 23° C. using an 18 h light/6 h dark cycle until the formation of green calli and shoots.

[1] = disclosed in copending U.S. application Ser. No. 08/430,209; cited from earlier work
tomato leaf discs [2] = assay: Regeneration of shoots or calli from tomato leaf explants, auxin together with cytokinin (BAP); format: cell-based; conditions: 0.5, 2.0 or 8.0 with 0.5 mg/l BAP
Experimental: In particular embodiments of the invention, various IAA analogues were screened for auxinic activity by incubating different plant tissues, e.g., tobacco and tomato leaf discs and potato stems in (a) MS complete medium (obtained from Life Technologies, Inc., Gaithersburg, Md.) containing different concentrations of auxin only and (2) the MS complete auxin medium containing different ratios of cytokinin/auxin. These IAA derivatives were further evaluated for auxinic activity in the presence of a cytokinin. […] Incubation of plant tissues Tomato seeds of variety “Moneymaker” are provided by Dr. James Saunders (USDA, Beltsville, Md.). Young tomato leaves are removed and cut into small pieces. Explants are incubated in MS complete medium with auxin in the presence or absence of cytokinin as described in section (a) above for tobacco. Young tobacco leaves, potato stems, tomato leaves and cassava leaves and stems from one-month-old plants were removed and cut into small pieces. The explants were incubated on (1) the MS complete medium containing different concentrations of auxin related compounds only (2) the MS complete medium containing different concentrations of auxin-related compounds and 0.5 mg/l benzylaminopurine (BAP) using an 18 hour light/6 hour dark cycle until the formation of green calli, shoots or roots.

tobacco leaf discs [3] = assay: Regeneration of shoots or calli from tobacco leaf explants, auxin together with cytokinin (BAP); format: cell-based, Nicotiana tobaccum Xanthi; design: key to Tobacco Callus (regeneration): +(−) means preliminary observation
Experimental: In particular embodiments of the invention, various IAA analogues were screened for auxinic activity by incubating different plant tissues, e.g., tobacco and tomato leaf discs and potato stems in (a) MS complete medium (obtained from Life Technologies, Inc., Gaithersburg, Md.) containing different concentrations of auxin only and (2) the MS complete auxin medium containing different ratios of cytokinin/auxin. These IAA derivatives were further evaluated for auxinic activity in the presence of a cytokinin. […] Incubation of plant tissues Seeds of Nicotiana tobaccum Xanthi are provided by Dr. James Saunders (USDA, Beltsville, Md.). Young tobacco leaves are removed and cut into small pieces. […] The regeneration of plant tissues using tissue culture depends on plant hormones such as auxin and cytokinin. It is known that the presence of an auxin in plant tissue cultured on Murashige and Skoog (MS) medium (Murashige, T. and F. Skoog (1962) Physiol. Plant 15:473-497) stimulates the formation of root structure whereas the formation of callus is observed when not only the auxin but also a cytokinin complement the MS nutrient medium. […]

tobacco leaf discs [4] = assay: Regeneration of roots or calli from tobacco leaf explants, MS complete medium with auxin only; format: cell-based, Nicotiana tobaccum Xanthi; design: key to Tobacco Callus (regeneration): +(−) means preliminary observation; conditions: for Tobacco Callus (regeneration): Auxins 2 mg/l, no cytokinin, MS complete medium
Experimental: (§3) In particular embodiments of the invention, various IAA analogues were screened for auxinic activity by incubating different plant tissues, e.g., tobacco and tomato leaf discs and potato stems in (a) MS complete medium (obtained from Life Technologies, Inc., Gaithersburg, Md.) containing different concentrations of auxin only and (2) the MS complete auxin medium containing different ratios of cytokinin/auxin.
(§4) In another embodiment of the invention, IAA analogues were screened for auxinic activity. […] Table 1 documents the ability of the different IAA analogues to stimulate the regeneration of roots or calli from tobacco, tomato and potato. In general, IAA analogues having a bromine substitution at the 2
Seeds of Nicotiana tobaccum Xanthi are provided by Dr. James Saunders (USDA, Beltsville, Md.). Young tobacco leaves are removed and cut into small pieces.
The regeneration of plant tissues using tissue culture depends on plant hormones such as auxin and cytokinin. It is known that the presence of an auxin in plant tissue cultured on Murashige and Skoog (MS) medium (Murashige, T. and F. Skoog (1962) Physiol. Plant 15:473-497) stimulates the formation of root structure whereas the formation of callus is observed when not only the auxin but also a cytokinin complement the MS nutrient medium. Therefore, evaluation of a test compound as a potential new auxin is performed by incubating tobacco leaf discs in (a) the MS complete medium containing different concentrations of auxin only and (b) the MS complete medium containing different ratios of cytokinin to auxin concentrations (cytokinin/auxin).
(§5) Young tobacco leaves, potato stems, tomato leaves and cassava leaves and stems from one-month-old plants were removed and cut into small pieces. The explants were incubated on (1) the MS complete medium containing different concentrations of auxin related compounds only (2) the MS complete medium containing different concentrations of auxin-related compounds and 0.5 mg/l benzylaminopurine (BAP) using an 18 hour light/6 hour dark cycle until the formation of green calli, shoots or roots.

potato stems [5] = assay: Regeneration of shoots or calli from potato stem explants, auxin together with cytokinin (BAP); format: cell-based; design: key to Potato Callus (regeneration): +(−) means preliminary observation
Experimental: In particular embodiments of the invention, various IAA analogues were screened for auxinic activity by incubating different plant tissues, e.g., tobacco and tomato leaf discs and potato stems in (a) MS complete medium (obtained from Life Technologies, Inc., Gaithersburg, Md.) containing different concentrations of auxin only and (2) the MS complete auxin medium containing different ratios of cytokinin/auxin. These IAA derivatives were further evaluated for auxinic activity in the presence of a cytokinin. […] Incubation of plant tissues Potato seeds of variety “Kent V. F.” are provided by Dr. James Saunders (USDA, Beltsville, Md.). Young potato stems are removed and cut into small pieces. Explants are incubated in MS complete medium with auxin in the presence or absence of cytokinin as described in section (a) above for tobacco. Young tobacco leaves, potato stems, tomato leaves and cassava leaves and stems from one-month-old plants were removed and cut into small pieces. The explants were incubated on (1) the MS complete medium containing different concentrations of auxin related compounds only (2) the MS complete medium containing different concentrations of auxin-related compounds and 0.5 mg/l benzylaminopurine (BAP) using an 18 hour light/6 hour dark cycle until the formation of green calli, shoots or roots.

potato stems [6] = assay: Regeneration of roots or calli from potato stem explants, MS complete medium with auxin only; format: cell-based; design: key to Potato Roots (regeneration): +(−) means preliminary observation; conditions: for root formation in potato stems: absence of BAP
Experimental: as §3, §4
Potato seeds of variety “Kent V. F.” are provided by Dr. James Saunders (USDA, Beltsville, Md.). Young potato stems are removed and cut into small pieces. Explants are incubated in MS complete medium with auxin in the presence or absence of cytokinin as described in section (a) above for tobacco.
as §5

tomato leaf discs [7] = assay: Regeneration of roots or calli from tomato leaf explants, MS complete medium with auxin only; format: cell-based; conditions: 0.5, 2.0 and 8.0 mg/l, absence of BAP
Experimental: as §3, §4
Tomato seeds of variety “Moneymaker” are provided by Dr. James Saunders (USDA, Beltsville, Md.). Young tomato leaves are removed and cut into small pieces. Explants are incubated in MS complete medium with auxin in the presence or absence of cytokinin as described in section (a) above for tobacco.
(§6) Young tobacco leaves, potato stems, tomato leaves and cassava leaves and stems from one-month-old plants were removed and cut into small pieces. […]

Cassava leaves and stems = assay: Regeneration of shoots or calli from cassava leaves and stems with auxin in the presence of BAP; format: cell-based; conditions: 2 mg/l with 0.5 mg/l BAP, MS complete medium
Experimental: Further, examples of IAA analogues of the invention were evaluated for auxinic activity in the presence of a cytokinin.
In another embodiment of the invention, IAA analogues of the present invention were applied to the regeneration of plant tissues known in the art to be difficult to regenerate, such as cassava, woody plants, and monocotyledonous crops [Vasil and Vasil (1994) in Plant Cell and Tissue Culture (Vasil and Thorpe, eds.), Kluwer Academic Publishers, Dordrech, Netherlands; Chee (1995) Plant Cell Reports 14:753-757; Bums and Schwartz (1996) Plant Cell Reports 15:405-408; Mihaljevic et al. (1996) Plant Cell Reports 15:610-614; Schopke et al. (1996) Nature Biotechnology 14:731].
Stems or third young leaves were removed from the one month old Cassava plants and cut into small pieces. The explants were incubated on MS complete medium containing different concentrations of auxin related compounds and 0.5 mg/l benzylaminopurine (BAP).
as §6

Compound | regeneration of kanamycin resistant calli and shoots in transformed tobacco (transformed tobacco) | Potato Callus (regeneration of transformed tissue) (transformed potato) | regeneration of kanamycin resistant calli in transformed potato (transformed potato) | further results
O=C(O)Cc1c[nH]c2c(Br)cccc12 [7-BrIAA, 7-bromoindole-3-acetic acid] | stimulated | +(−) | stimulated | 
5-bromo-IAA |  |  |  | effectiveness in stimulating the regeneration of green calli, relative to IAA (Arabidopsis thaliana): between two and four times more effective than IAA; callus and shoot formation in combination with cytokinin [1]: both callus and shoot formation are observed
O=C(O)Cc1c[nH]c2cc(Br)ccc12 [6-BrIAA, 6-bromoindole-3-acetic acid] |  |  |  | growth response of tomato leaf discs (tomato leaf discs [2]): calli, not roots, were formed; growth response of tobacco leaf discs (tobacco leaf discs [3]; different concentrations, presence of BAP): the formation of both shoots and calli occurred; growth response of tobacco leaf discs (tobacco leaf discs [4]; different concentrations, absence of BAP): both the formation of roots and the formation of calli were observed; growth response of potato stems (potato stems [5]; 0.5, 2.0, 8.0 mg/l with BAP 0.5 mg/l): callus formation was observed at all ratios of cytokinin/auxin; root formation in potato stems (potato stems [6]): root formation was diminished; root formation in potato stems (potato stems [6]; concentration increased from 0.5 to 2.0 mg/l): root formation increased; growth response of tomato leaf discs (tomato leaf discs [7]): only root formation was observed
O=C(O)Cc1c[nH]c2c(F)cccc12 [7-FIAA, 7-fluoroindole-3-acetic acid] | stimulated | +(−) | stimulated | 
O=C(O)Cc1c[nH]c2ccc(F)cc12 [5-FIAA, 5-fluoroindole-3-acetic acid] | stimulated |  | stimulated | shoot formation in cassava stems and leaves (Cassava leaves and stems): promoted the formation of shoots in cassava stems and to a greater extent from cassava leaves; also recorded: regeneration of shoots
CCc1cccc2c(CC(=O)O)c[nH]c12 [7-EtIAA, 7-ethylindole-3-acetic acid] | stimulated | +(−) | stimulated | 
CCc1ccc2[nH]cc(CC(=O)O)c2c1 [5-EtIAA, 5-ethylindole-3-acetic acid] | stimulated |  | stimulated | Tobacco Callus (regeneration) (tobacco leaf discs [4]): +(−)
O=C(O)Cc1c[nH]c2ccc(I)cc12 [5-IIAA, 5-iodoindole-3-acetic acid] |  |  |  | Tobacco Callus (regeneration) (tobacco leaf discs [3]; BAP 0.5 mg/l + Auxins 2 mg/l): +(−); Tobacco Callus (regeneration) (tobacco leaf discs [4]): +(−); Potato Callus (regeneration) (potato stems [5]; BAP 0.5 mg/l + Auxins 2 mg/l): +(−); Potato Roots (regeneration) (potato stems [6]; Auxins 2 mg/l, no cytokinin, MS complete medium): +(−)
COc1ccc2[nH]cc(CC(=O)O)c2c1 [5-MeoIAA, 5-methoxyindole-3-acetic acid] | stimulated |  | stimulated | 
O=C(O)Cc1c[nH]c2ccc(Cl)cc12 [5-ClIAA, 5-chloroindole-3-acetic acid] | stimulated |  | stimulated | 
